The text below walks through data of a melting point compilation (Tetko et al.; mined from patent text by program, amines drawn as free bases though some values may be those of a salt).

Bounds are passed on as bounds.

Compound `N#Cc1ncn2c(C(F)(F)F)cc(-c3cccc(Cl)c3)nc12` gave a melting point of 221 °C.

On to `COC(=O)CCCc1cc2nc(C(F)(F)F)ccc2n1S(=O)(=O)c1ccccc1Cl`, for which the melting point amounted to 88 °C.

For the compound `COc1ccc(-c2cnc(S)nc2-c2ccc(OC)cc2)cc1`, the melting point was 188 to 191 °C.

Turning to `O=C(O)CCCCCCc1nc2c(F)c(F)cc(F)c2s1`, the melting point lay in the range of 116 to 118 °C.

As for `CCCCC[C@@H](C(=O)O)c1cccc2c1OCO2`, the melting point fell in the range of 47 to 48 °C.

`CSc1cnc2cc(-c3cccc(Cl)c3)sc2c1O`: the melting point is greater than 300 °C.

On to `CCOC(=O)C(OCC)C(=O)Nc1cc(Cl)cc(Cl)c1` (stereo unspecified), for which the melting point lay in the range of 84 to 86 °C.

`CCN(CC)C(=O)CCc1nc(-c2ccccn2)nc2ccccc12` showed a melting point of 130 °C.

In turn, `COc1ccc2c(O)c(CO)cnc2c1` gave a melting point of 291 to 297 °C.

Compound `CCCCCCCNCc1cccc(OCCCNc2nc(N)nn2C)c1` gave a melting point of 64 to 65 °C.

Turning to `C[C@]1(CN2CCN(C3CCN(CC=Cc4ccc(OC(F)(F)F)cc4)CC3)CC2)Cn2cc([N+](=O)[O-])nc2O1`, the melting point lay in the range of 157 to 158 °C.

Regarding `C#Cc1ccc2c(c1)C(c1ccccc1F)=NC(C)c1c(C(=O)OCC)ncn1-2` (stereo unspecified), the melting point fell in the range of 212 to 214 °C.

Take `OC1(c2ccc3c(c2)OCO3)CCN(CC=Cc2ccccc2)CC1`: the melting point is 114 to 115 °C.

The compound `COC(=O)c1c2n(c3ccccc13)Cc1ccccc1N1CCN(C)CC21` (stereo unspecified) registered a melting point of 157 to 159 °C.

With `CCOC(=O)c1c(C(F)(F)F)nc2cc(C(F)(F)F)ccc2c1O`, the melting point was 156 °C.

Take `COc1ccc(OCC(F)(F)F)cc1N1CCN(CCCNC(=O)c2c(-c3ccccc3)noc2C)CC1`: the melting point was determined as 125 °C.

The compound `Clc1cccc(Oc2nccnc2Cl)c1` yielded a melting point of 83 to 85 °C.

`CS(=O)(=O)c1ccc(C2=C(c3ccc(Cl)cc3)C(=O)N(C3CCCCC3)C2)cc1` had a melting point of 142 to 144 °C.

As for `CC1=C(C#N)C(c2cccc3nc(-c4ccccc4)sc23)C(C(=O)OC(C)C)=C(C)N1` (stereo unspecified), the melting point came out at 218 °C.

For `CN=C(NC#N)N1CC1`, the melting point was in the range of 130 to 132 °C.

Regarding `CC(CCC(=O)O)C1CCC2C3=CC=C4C(C)(C)C(O)CCC4(C)C3CCC21C` (stereo unspecified), the melting point was in the range of 210 to 213 °C.

The compound `CC(C)C(=O)C(=CN(C)C)c1ccc(Cl)cc1` returned a melting point of 95 °C.

For `Cc1c(Cc2cccc(C(F)(F)F)c2)oc2c(-c3cccc(C(=O)NCCO)c3)cccc12`, the melting point lay within 158 to 159 °C.

`COC(=O)c1cc2ccc3[nH]ccc3c2[nH]1` had a melting point of 183 to 184 °C.

Compound `CS(=O)(=O)N1CCC2(CC1)OCCO2` had a melting point of 107 to 109 °C.

`CN1CCN(c2cc3c(cc2F)c(=O)n(O)c(=O)n3-c2cccc(F)c2)CC1` returned a melting point of 176 to 178 °C.

The compound `CCN(C=NS(=O)(=O)NC(=O)Nc1nc(OC)cc(OC)n1)CSC` had a melting point of 143 to 144 °C.

As to `CS(=O)(=O)c1ccc(-c2cc(C(=O)CCCO[N+](=O)[O-])nn2-c2ccccc2)cc1`, the melting point was 142 to 144 °C.

As to `CCC1C(C)=NN=C(c2ccccc2Cl)c2cc(OC)c(OC)cc21` (stereo unspecified), the melting point fell in the range of 129 to 131 °C.

Regarding `COC(=O)CCCc1cc2nc(C(F)(F)F)ccc2n1S(=O)(=O)c1ccc(Cl)cc1`, the melting point turned out to be 97 °C.

In the case of `O=C(Nc1ccc(F)cc1F)c1cccc(Oc2cccc(C(F)(F)F)c2)n1`, the melting point lay in the range of 110 to 112 °C.

`CCOC(=O)c1cn(-c2nonc2C)c2c(F)c(F)c(F)cc2c1=O`: the melting point was in the range of 201 to 202 °C.

For the compound `O=C1NCC(Cc2ccccc2OCc2ccccc2)O1` (stereo unspecified), the melting point is 90 to 91 °C.

`C=CCCCn1ncc2c(OCC)c(C(=O)OCC)cnc21` returned a melting point of 61 to 62 °C.

`O=c1occc2ccc(Oc3ccc(Cl)cc3)cc12` had a melting point of 76.5 to 77 °C.

On to `CSCCCn1c(C)c(C(=O)c2cccc(Cl)c2Cl)c2cccc(Cl)c21`, for which the melting point turned out to be 87 °C.

Compound `NC(=O)CNC(=O)c1ccc(F)c(-c2cccc3cc(Cc4cc(F)cc(Cl)c4)sc23)c1` returned a melting point of 159 to 160 °C.

The compound `Cc1cccc(OS(=O)(=O)c2ccc(N3CCCNC3=O)cc2)c1` had a melting point of 145 to 147 °C.

`NS(=O)(=O)c1ccc(-n2nc(C(F)F)cc2-c2nc3cccc(F)c3s2)cc1` had a melting point of 246 to 248 °C.

In turn, `Cc1ccc(N)c(C(N)=O)c1` registered a melting point of 171 to 174 °C.

As for `CCCCCS(=O)(=O)NC(=O)/C=C/c1cc(OCC2(C)COC2)nn1Cc1ccc(C(F)(F)F)cc1Cl`, the melting point lay in the range of 144 to 147 °C.

Compound `CCOC(=O)CCc1ccc(OC(C)C)nc1Oc1ccc(Cl)cc1Cl` yielded a melting point of 42.5 to 43.5 °C.

Turning to `O=C1NCCN1S(=O)(=O)c1ccc(F)cc1`, the melting point fell in the range of 183 to 185 °C.

The compound `OCc1ccc(-c2ccc(OC(F)(F)F)cc2)nc1` displayed a melting point of 57 to 58 °C.

Turning to `O=C(O)COc1ccc2c(=O)c3c(oc2c1)C(=Cc1ccccc1)CC3`, the melting point fell in the range of 277 to 279 °C.

`CC(=O)OC1CC(OC(C)=O)C2(C)C(C1)C(Br)C(Br)C1C3CCC(C(C)CCCC(C)C)C3(C)CCC12` (stereo unspecified) showed a melting point of 155 to 156 °C.

As for `CCOC(=O)C1C(=O)NC(=O)CC1c1ccc(F)cc1` (stereo unspecified), the melting point was in the range of 97 to 99 °C.

`COC(=O)c1cc(C(=O)c2c(C)c(NS(=O)(=O)c3cccc(OC)c3)c3ccccn23)ccc1NC(=O)C(F)(F)F` returned a melting point of 220 °C.

Compound `CC/C(CO)=C(/c1ccccc1)c1ccc(O)cc1` gave a melting point of 112 to 116 °C.

`CC1(COc2ccc(Cc3nnn[nH]3)cc2)CCCCC1=NO` (stereo unspecified) registered a melting point of 153 to 156 °C.

In turn, `C=C=CN(C(=O)c1ccco1)c1c(C)cccc1C` gave a melting point of 138 to 141 °C.

`COc1ccc2c(c1)CCc1c(C#N)cccc1S2` had a melting point of 129 to 130 °C.

For the compound `CC(C)(C)C(=O)NNc1cc(F)c(C#N)cc1F`, the melting point was 167 °C.

Take `O=C(C=Cc1ccccc1)OCC#CC#CCOC(=O)C=Cc1ccccc1`: the melting point was 102 to 104 °C.

`CCCN(CCC)c1nsc(N)c1C#N`: the melting point fell in the range of 136 to 138 °C.

The compound `Cc1nc(O)c(-c2ccccc2)s1` returned a melting point of 208 to 211 °C.

As for `Cc1cnc(N2CCC(c3ccc(NS(C)(=O)=O)cc3)CC2)n1C`, the melting point lay within 225 to 226 °C.

Take `O=C(c1ccc(O)cc1)c1c(Cc2ccccc2)oc2ccccc12`: the melting point fell in the range of 146 to 149 °C.

In turn, `OCC(CCNC1CCC(c2ccc(OCc3ccccc3)cc2)CC1)c1ccccc1` (racemic) had a melting point of 140 to 142 °C.

Regarding `CCOC(=O)c1cnn(C)c1NCc1ccc(-c2ccccc2C#N)cc1`, the melting point lay within 107 to 108 °C.

In the case of `N#CC(C#N)=C1c2ccsc2-c2c1cc([N+](=O)[O-])cc2[N+](=O)[O-]`, the melting point lay in the range of 244 to 246 °C.

On to `Cc1c(NC(=O)c2ccc(-c3ccc(F)cc3)cc2)ccc2cc(CN(C(C)C)C(C)C)cnc12`, for which the melting point lay within 179 to 180 °C.

The compound `COc1ccc(C=O)c(Cl)c1Cl` showed a melting point of 112 to 113 °C.

`CC(=C(c1ccccc1)c1ccccc1)P(C(C)(C)C)C(C)(C)C` registered a melting point of 130 to 133 °C.

The compound `CC(=O)OCCOC(=O)C1=C(C)NC(C)=C([N+](=O)[O-])C1c1ccccc1Cl` (stereo unspecified) had a melting point of 158 to 160 °C.

With `NC(=O)C(=O)NC(C(=O)OC(c1ccccc1)c1ccccc1)c1ccco1` (stereo unspecified), the melting point was in the range of 168 to 170 °C.

The compound `C1COCCN2CCSCCSCCN(CCO1)CCSCCSCC2` came in with a melting point of 86 °C.

With `CCCc1nc2c(N)nc3cc(-c4ccc(F)cc4CN)ccc3c2s1`, the melting point fell in the range of 181 to 184 °C.

The compound `O=[N+]([O-])c1ccc(O)c(C(=NO)c2ccccc2)c1` had a melting point of 193 to 196 °C.

The compound `CC(=O)c1c(C)[nH]c(Cc2ccccc2)c1C` gave a melting point of 166 to 167 °C.

In the case of `COC(C)CC(=O)NC1CCC(CCN2CCN(c3nccc4c3CCO4)CC2)CC1` (stereo unspecified), the melting point stood at 167 °C.

Turning to `Cn1c(=O)oc2cc(CCO)cnc21`, the melting point was in the range of 142 to 144 °C.

Regarding `COc1ccc2c(c1)CCN1C[C@H]3CCCN(S(C)(=O)=O)[C@H]3C[C@@H]21`, the melting point was 165 to 166 °C.

Turning to `CCCSc1ccc(-c2coc3ccc(-c4nnc(C)o4)cc23)cc1`, the melting point is 101 to 102 °C.

Regarding `CCOC(=O)CCc1c(C)c2c(O)cc(C(C)CCCc3ccccc3)cc2oc1=O` (stereo unspecified), the melting point lay within 58 to 70 °C.

In turn, `CCOC(=O)c1csnc1-c1ccc(OC)c(OC)c1` showed a melting point of 74 to 75.5 °C.

Consider `CC[C@H](C)Nc1cc(C(=O)OC)cc(NS(C)(=O)=O)n1`, for which the melting point lay in the range of 119 to 123 °C.

As for `COC(=O)CCc1cc(C)c(O)c(C)c1`, the melting point fell in the range of 70 to 83 °C.

`CC(OC(C)c1ncn2c1CN(C)C(=O)c1cc(Cl)ccc1-2)c1ncn2c1CN(C)C(=O)c1cc(Cl)ccc1-2` (stereo unspecified) gave a melting point of 193 to 194 °C.

`CC(C#N)(c1ccc(F)cc1)c1ccc(N2NCC(=O)NC2=O)cc1Cl` (stereo unspecified): the melting point was 122 °C.

`Cn1cnc2cc(F)ccc2c1=O` registered a melting point of 133 to 135 °C.

In turn, `COc1ccc2nccc(NC(=O)C3CCN(CCc4cnc5ccccc5n4)CC3)c2n1` had a melting point of 170 °C.

On to `COc1cc(NC(=O)Nc2ccc3c(c2)CCN(C(=O)Nc2ccc(OCC(O)CO)cc2Cl)C3)cc(OC)c1` (stereo unspecified), for which the melting point lay within 108 to 110 °C.

Compound `CN(C)CCSC(=O)c1c[nH]c(=S)n1C1CCc2c(F)cc(F)cc2C1` (stereo unspecified) registered a melting point of 204 to 206 °C.

Compound `Cc1ccc(CSc2nc3cc4c(cc3[nH]2)C(C)(C)C(=O)C4(C)C)nc1` displayed a melting point of 220 to 222 °C.

`COc1ccc(-c2cc(NC(=O)C3(C)Cc4ccccc4C3)n[nH]2)cc1` yielded a melting point of 171 to 172 °C.

Regarding `CCCCCCN(C(=O)C(C)C)c1sc(CC)cc1C(=O)O`, the melting point was in the range of 98 to 101 °C.

Compound `NCCCCn1cnc2c(N)nc3cccnc3c21` returned a melting point of 161 to 163 °C.

As to `CCCCn1c2ccccc2c2cc(C(=O)O)ncc21`, the melting point was 182 to 184 °C.

Regarding `Nc1nccn2c(C3CCC3)nc(-c3cccc(OCc4ccccc4)c3F)c12`, the melting point was in the range of 88 to 89 °C.

`CCCOc1ccccc1-c1nc(O)cc(C#N)n1` gave a melting point of 135 to 136 °C.

The melting point is the temperature, or range, at which the solid turns liquid.
